According to patent publication US11377451B2, “Compositions and methods for treating cancer” (The Regents of the University of California, priority 2019, dated 2022):

Tests used:
GBM39 = assay: GI50 assay (Cell Titer Glo proliferation, 3 days); type: cell-based, human; details: Homo sapiens, 72 h; GBM39, 3 days
HK301 = assay: GI50 assay (Cell Titer Glo proliferation, 3 days); type: cell-based, human; details: Homo sapiens, 72 h; HK301, 3 days; read-out: HK301 GI50

SMILES | GI50 (GBM39) [µM] | GI50 (HK301) [µM]
CC1Oc2cc3ncnc(Nc4cccc(Br)c4F)c3cc2OC1C (racemic) [JGK051, (±)-cis- and (±)-trans-N-(3-Bromo-2-fluorophenyl)-7,8-dimethyl-7,8-dihydro[1,4]dioxino[2,3-g]quinazolin-4-amine] | 24.1 | 8.25
C#Cc1cccc(Nc2ncnc3cc(OC(=O)c4ccccc4)c(OC(=O)c4ccccc4)cc23)c1 [JGK006] | 51.4 | 11
COC1N=C(N(C(=O)OC(C)(C)C)c2cccc(Cl)c2F)c2cc3c(cc2N1C(=O)OC(C)(C)C)OCCO3 (stereo not shown) [JGK013] | 220 | 1.55
C#Cc1cccc(N(C(=O)OC(C)(C)C)C2=NC(OCC)N(C(=O)OC(C)(C)C)c3cc(OCCOC)c(OCCOC)cc32)c1 (stereo not shown) [JGK003] | 23.1 | 1.13
Fc1c(Br)cccc1Nc1ncnc2cc3c(cc12)OCC(CCN1CCCCC1)O3 (racemic) [JGK090, (±)-N-(3-Bromo-2-fluorophenyl)-8-[2-(piperidin-1-yl)ethyl]-7,8-dihydro[1,4]dioxino[2,3-g]quinazolin-4-amine] | 4.33 | 2.39
Fc1ccc(Nc2ncnc3cc4c(cc23)OCCO4)c(F)c1 [JGK025] | 27.7 | 10.7
CN(C)C[C@H]1COc2cc3ncnc(Nc4cccc(Br)c4F)c3cc2O1 [JGK066S] | 2.63 | 0.301
Fc1ccc(Nc2ncnc3cc4c(cc23)OCCO4)c(F)c1Br [JGK057, N-(3-Bromo-2,4-difluorophenyl)-7,8-dihydro[1,4]dioxino[2,3-g]quinazolin-4-amine] | 9.36 | 1.38
C=CC1COc2cc3ncnc(Nc4cccc(Br)c4F)c3cc2O1 (racemic) [JGK062, (±)-N-(3-Bromo-2-fluorophenyl)-7-ethenyl-7,8-dihydro[1,4]dioxino[2,3-g]quinazolin-4-amine] | 5.86 | 3.78
C#Cc1cccc(N(C(=O)CCCCOC(=O)CCCCOC(=O)CCCCOC(C)=O)c2ncnc3cc(OCCOC)c(OCCOC)cc23)c1 [JGK009] | 14.6 | 6.1
Fc1cccc(F)c1Nc1ncnc2cc3c(cc12)OCCO3 [JGK027] | 11.8 | 5.81
COC(=O)[C@H](Cc1ccc(Nc2ncnc3cc(O)c(O)cc23)cc1)NC(=O)OC(C)(C)C [JGK020] | 36.2 | 29.2
COc1cc2ncnc(Nc3cccc(Cl)c3F)c2cc1OC(C)=O [JGK018] | 4.54 | 1.07
[2H]C1([2H])Oc2cc3ncnc(Nc4cccc(Cl)c4F)c3cc2OC1([2H])[2H] [JGK036, N-(3-Chloro-2-fluorophenyl)(7,7,8,8-^2H4)-7,8-dihydro[1,4]dioxino[2,3-g]quinazolin-4-amine] | 4.51 | 1.05
CN(C)CC1COc2cc3c(Nc4cccc(Br)c4F)ncnc3cc2O1 (racemic) [JGK077, (±)-N-(3-Bromo-2-fluorophenyl)-8-[(dimethylamino)methyl]-7,8-dihydro[1,4]dioxino[2,3-g]quinazolin-4-amine] | 16.7 | 6.84
Fc1ccc(Br)c(F)c1Nc1ncnc2cc3c(cc12)OCCO3 [JGK056, N-(3-Bromo-2,6-difluorophenyl)-7,8-dihydro[1,4]dioxino[2,3-g]quinazolin-4-amine] | 1.36 | 0.419
C#Cc1cccc(N(C(=O)[C@H](Cc2ccccc2)NC(=O)OC(C)(C)C)c2ncnc3cc(OCCOC)c(OCCOC)cc23)c1 [JGK007] | – | 92.1
FC(F)(F)c1c(Cl)cccc1Nc1ncnc2cc3c(cc12)OCCO3 [JGK017] | 97.6 | 64.2
Fc1c(Br)cccc1Nc1ncnc2cc3c(cc12)OC(CCN1CCCC1)CO3 (racemic) [JGK084, (±)-N-(3-Bromo-2-fluorophenyl)-7-[2-(pyrrolidin-1-yl)ethyl]-7,8-dihydro[1,4]dioxino[2,3-g]quinazolin-4-amine] | 5.64 | 1.83
Fc1c(Nc2ncnc3cc4c(cc23)OCCO4)cccc1C(F)(F)F [JGK039, N-[2-Fluoro-3-(trifluoromethyl)phenyl]-7,8-dihydro[1,4]dioxino[2,3-g]quinazolin-4-amine] | 7.82 | 3.61
Fc1c(Br)cccc1Nc1ncnc2cc3c(cc12)OCC(CN1CCCCC1)O3 (racemic) [JGK080, (±)-N-(3-Bromo-2-fluorophenyl)-8-[(piperidin-1-yl)methyl]-7,8-dihydro[1,4]dioxino[2,3-g]quinazolin-4-amine] | 14.5 | 7.37
CN1CCN(CC2COc3cc4ncnc(Nc5cccc(Cl)c5F)c4cc3O2)CC1 (racemic) [JGK075, (±)-N-(3-Chloro-2-fluorophenyl)-7-[(4-methylpiperazin-1-yl)methyl]-7,8-dihydro[1,4]dioxino [2,3-g]quinazolin-4-amine] | 4 | 1.18

SMILES | GI50 (GBM39) [µM] | GI50 (HK301) [µM]
CC(=O)OCN(c1cccc(Cl)c1F)c1ncnc2cc3c(cc12)OCCO3 [JGK043, [(3-Chloro-2-fluorophenyl)(7,8-dihydro[1,4]dioxino[2,3-g]quinazolin-4-yl)amino]methyl acetate] | 1.78 | 0.745
Fc1c(Br)cccc1Nc1ncnc2cc3c(cc12)OC(CCN1CCCCC1)CO3 (racemic) [JGK085, (±)-N-(3-Bromo-2-fluorophenyl)-7-[2-(piperidin-1-yl)ethyl]-7,8-dihydro[1,4]dioxino[2,3-g]quinazolin-4-amine] | 2.62 | 1.02
Fc1c(Br)cccc1Nc1ncnc2cc3c(cc12)OC(CN1CCCC1)CO3 (racemic) [JGK067, (±)-N-(3-Bromo-2-fluorophenyl)-7-[(pyrrolidin-1-yl)methyl]-7,8-dihydro[1,4]dioxino[2,3-g]quinazolin-4-amine] | 2.2 | 0.898
Fc1c(Nc2ncnc3cc4c(cc23)OCCO4)ccc(Cl)c1Cl [JGK060, N-(3,4-Dichloro-2-fluorophenyl)-7,8-dihydro[1,4]dioxino[2,3-g]quinazolin-4-amine] | 3.5 | 2.95
Fc1c(Br)cccc1Nc1ncnc2cc3c(cc12)OCC(CN1CCCC1)O3 (racemic) [JGK079, (±)-N-(3-Bromo-2-fluorophenyl)-8-[(pyrrolidin-1-yl)methyl]-7,8-dihydro[1,4]dioxino[2,3-g]quinazolin-4-amine] | 15.7 | 7.21
Fc1c(Br)cccc1Nc1ncnc2cc3c(cc12)OCC(CCN1CCOCC1)O3 (racemic) [JGK086, (±)-N-(3-Bromo-2-fluorophenyl)-8-[2-(morpholin-4-yl)ethyl]-7,8-dihydro[1,4]dioxino[2,3-g]quinazolin-4-amine] | 4.45 | 2.56
COC(=O)[C@@H](N)Cc1ccc(Nc2ncnc3cc4c(cc23)OCCO4)cc1 [JGK016] | 61.6 | 4.05
Fc1c(Br)cc(Cl)cc1Nc1ncnc2cc3c(cc12)OCCO3 [JGK058, N-(3-Bromo-5-chloro-2-fluorophenyl)-7,8-dihydro[1,4]dioxino[2,3-g]quinazolin-4-amine] | 13 | 1.85
Fc1c(F)c(F)c(Nc2ncnc3cc4c(cc23)OCCO4)c(F)c1F [JGK030] | 961 | 559
O=C(Oc1cc2ncnc(Nc3cccc(Cl)c3F)c2cc1OC(=O)c1ccccc1)c1ccccc1 [JGK004] | 103 | 23.4
Fc1cc(Br)c(F)c(Nc2ncnc3cc4c(cc23)OCCO4)c1 [JGK061, N-(3-Bromo-2,5-difluorophenyl)-7,8-dihydro[1,4]dioxino[2,3-g]quinazolin-4-amine] | 1.73 | 1.13
CN1CCN(CCC2COc3cc4ncnc(Nc5cccc(Br)c5F)c4cc3O2)CC1 (racemic) [JGK070, (±)-N-(3-Bromo-2-fluorophenyl)-7-[2-(4-methylpiperazin-1-yl)ethyl]-7,8-dihydro[1,4]dioxino[2,3-g]quinazolin-4-amine] | 3.33 | 1.41
Fc1ccccc1Nc1ncnc2cc3c(cc12)OCCO3 [JGK035, N-(2-Fluorophenyl)-7,8-dihydro[1,4]dioxino[2,3-g]quinazolin-4-amine] | 10.7 | 4.04
OC1COc2cc3ncnc(Nc4cccc(Br)c4F)c3cc2O1 (racemic) [JGK050, (±)-4-(3-Bromo-2-fluoroanilino)-7,8-dihydro[1,4]dioxino[2,3-g]quinazolin-7-ol] | 3.57 | 1.16
C#Cc1cccc(N(C(=O)OC(C)(C)C)C2=NC(OC)N(C(=O)OC(C)(C)C)c3cc(OCCOC)c(OCCOC)cc32)c1 (stereo not shown) [JGK001] | 19.7 | 2.21
Fc1c(Br)cccc1Nc1ncnc2c(F)c3c(cc12)OCCO3 [JGK071, N-(3-Bromo-2-fluorophenyl)-10-fluoro-7,8-dihydro[1,4]dioxino[2,3-g]quinazolin-4-amine] | 10.3 | 5.75
CCOC(=O)N(c1cccc(Cl)c1F)c1ncnc2cc3c(cc12)OCCO3 [JGK047, Ethyl (3-chloro-2-fluorophenyl)7,8-dihydro[1,4]dioxino[2,3-g]quinazolin-4-ylcarbamate] | – | 316
CN1CCN(CCC2COc3cc4c(Nc5cccc(Br)c5F)ncnc4cc3O2)CC1 (racemic) [JGK088, (±)-N-(3-Bromo-2-fluorophenyl)-8-[2-(4-methylpiperazin-1-yl)ethyl]-7,8-dihydro[1,4]dioxino[2,3-g]quinazolin-4-amine] | 4.06 | 2.13
COC(=O)[C@@H](Cc1ccc(Nc2ncnc3cc4c(cc23)OCCO4)cc1)NC(=O)OC(C)(C)C [JGK014] | 27.9 | 11.8
CC(=O)N(c1cccc(Cl)c1F)c1ncnc2cc3c(cc12)OCCO3 [JGK0012] | 10.8 | 5.48
Fc1c(Br)cccc1Nc1ncnc2cc3c(cc12)OCC(CN1CCOCC1)O3 (racemic) [JGK076, (±)-N-(3-Bromo-2-fluorophenyl)-8-[(morpholin-4-yl)methyl]-7,8-dihydro[1,4]dioxino[2,3-g]quinazolin-4-amine] | 16.9 | 6.16
CC(C)(C)OC(=O)N(CCS(C)(=O)=O)Cc1ccc(-c2ccc3ncnc(Nc4ccc(OCc5cccc(F)c5)c(Cl)c4)c3c2)o1 [JGK008] | – | 81.3
